Measured values published in patent US20250295646A1, “METHODS OF USE OF T-TYPE CALCIUM CHANNEL MODULATORS” (Praxis Precision Medicines, Inc., priority 2022, published 2025).

Key:
[1] = Within-participant escalating dose trial Part A: safety and tolerability; assay type: in vivo, human; details: N = 8
Experimental: In Part A, an open label trial was conducted.

[2] = tested on: adult patients with essential tremor; assay: Example 16: Patient Global Impression of Change (PGI-C); assay type: in vivo, human; details: for participants with PGI-C score minimally improved: Part A; for participants with PGI-C much improved / participants with PGI-C score reflecting no change in symptoms: Part B OLT
Text: Patients were scheduled for Safety Follow-up on Day 70 (±1 day) in the clinic for the final clinical trial assessment.

hCav3.2 = biological target: T1, hCav3.2 (Homo sapiens, UniProt O95180); assay: PatchXpress patch clamp, voltage dependent block (half-inactivated state); assay type: cell-based
T1 construct: expressed in transfected cells; host or cells: HEK-293
Experimental: The voltage dependence of calcium channel isoforms was determined by comparing the activity of resting (Tonic Block) and half-inactivated (Voltage Dependent Block) voltages across various concentrations of Formula (II). First, HEK-293 cells containing hCav3.1, hCav3.2, or hCav3.3 calcium channel isoforms were prepared by seeding at 2×10^6 cells per flask in culture for 2 days; the cells were then harvested at about 6×10^6 cells. Harvested cells were washed once in DPBS for approximately 30 minutes, and 1 mL of 1× (0.05%) Trypsin-EDTA was added, swirled, and allowed to sit on the cells for approximately 4 minutes. […]
Pharmacology was measured during Epoch 1. Percent inhibition was calculated as: 100*((([Step 2+Step 5]/2)−Step3)/(Step 2+Step 5/2)), wherein Step 2 is the peak current measured at baseline, Step 5 is the current measured during the wash period, and Step 3 is the peak current measured during application of the compound. […]
The effect of the compound on peak current amplitude was monitored using the voltage protocol described above and washed out after reaching steady state as determined by PatchXpress stability scripts. […] Washout current for the calculation of inhibition was determined by resetting the holding potential to the previously determined half-inactivation potential (V0.5) and measuring peak current from this holding potential. […]

[3] = Part B RWD (RWAS), Day 56, n 6, change from randomization baseline

T1 sequence (O95180 whole entry): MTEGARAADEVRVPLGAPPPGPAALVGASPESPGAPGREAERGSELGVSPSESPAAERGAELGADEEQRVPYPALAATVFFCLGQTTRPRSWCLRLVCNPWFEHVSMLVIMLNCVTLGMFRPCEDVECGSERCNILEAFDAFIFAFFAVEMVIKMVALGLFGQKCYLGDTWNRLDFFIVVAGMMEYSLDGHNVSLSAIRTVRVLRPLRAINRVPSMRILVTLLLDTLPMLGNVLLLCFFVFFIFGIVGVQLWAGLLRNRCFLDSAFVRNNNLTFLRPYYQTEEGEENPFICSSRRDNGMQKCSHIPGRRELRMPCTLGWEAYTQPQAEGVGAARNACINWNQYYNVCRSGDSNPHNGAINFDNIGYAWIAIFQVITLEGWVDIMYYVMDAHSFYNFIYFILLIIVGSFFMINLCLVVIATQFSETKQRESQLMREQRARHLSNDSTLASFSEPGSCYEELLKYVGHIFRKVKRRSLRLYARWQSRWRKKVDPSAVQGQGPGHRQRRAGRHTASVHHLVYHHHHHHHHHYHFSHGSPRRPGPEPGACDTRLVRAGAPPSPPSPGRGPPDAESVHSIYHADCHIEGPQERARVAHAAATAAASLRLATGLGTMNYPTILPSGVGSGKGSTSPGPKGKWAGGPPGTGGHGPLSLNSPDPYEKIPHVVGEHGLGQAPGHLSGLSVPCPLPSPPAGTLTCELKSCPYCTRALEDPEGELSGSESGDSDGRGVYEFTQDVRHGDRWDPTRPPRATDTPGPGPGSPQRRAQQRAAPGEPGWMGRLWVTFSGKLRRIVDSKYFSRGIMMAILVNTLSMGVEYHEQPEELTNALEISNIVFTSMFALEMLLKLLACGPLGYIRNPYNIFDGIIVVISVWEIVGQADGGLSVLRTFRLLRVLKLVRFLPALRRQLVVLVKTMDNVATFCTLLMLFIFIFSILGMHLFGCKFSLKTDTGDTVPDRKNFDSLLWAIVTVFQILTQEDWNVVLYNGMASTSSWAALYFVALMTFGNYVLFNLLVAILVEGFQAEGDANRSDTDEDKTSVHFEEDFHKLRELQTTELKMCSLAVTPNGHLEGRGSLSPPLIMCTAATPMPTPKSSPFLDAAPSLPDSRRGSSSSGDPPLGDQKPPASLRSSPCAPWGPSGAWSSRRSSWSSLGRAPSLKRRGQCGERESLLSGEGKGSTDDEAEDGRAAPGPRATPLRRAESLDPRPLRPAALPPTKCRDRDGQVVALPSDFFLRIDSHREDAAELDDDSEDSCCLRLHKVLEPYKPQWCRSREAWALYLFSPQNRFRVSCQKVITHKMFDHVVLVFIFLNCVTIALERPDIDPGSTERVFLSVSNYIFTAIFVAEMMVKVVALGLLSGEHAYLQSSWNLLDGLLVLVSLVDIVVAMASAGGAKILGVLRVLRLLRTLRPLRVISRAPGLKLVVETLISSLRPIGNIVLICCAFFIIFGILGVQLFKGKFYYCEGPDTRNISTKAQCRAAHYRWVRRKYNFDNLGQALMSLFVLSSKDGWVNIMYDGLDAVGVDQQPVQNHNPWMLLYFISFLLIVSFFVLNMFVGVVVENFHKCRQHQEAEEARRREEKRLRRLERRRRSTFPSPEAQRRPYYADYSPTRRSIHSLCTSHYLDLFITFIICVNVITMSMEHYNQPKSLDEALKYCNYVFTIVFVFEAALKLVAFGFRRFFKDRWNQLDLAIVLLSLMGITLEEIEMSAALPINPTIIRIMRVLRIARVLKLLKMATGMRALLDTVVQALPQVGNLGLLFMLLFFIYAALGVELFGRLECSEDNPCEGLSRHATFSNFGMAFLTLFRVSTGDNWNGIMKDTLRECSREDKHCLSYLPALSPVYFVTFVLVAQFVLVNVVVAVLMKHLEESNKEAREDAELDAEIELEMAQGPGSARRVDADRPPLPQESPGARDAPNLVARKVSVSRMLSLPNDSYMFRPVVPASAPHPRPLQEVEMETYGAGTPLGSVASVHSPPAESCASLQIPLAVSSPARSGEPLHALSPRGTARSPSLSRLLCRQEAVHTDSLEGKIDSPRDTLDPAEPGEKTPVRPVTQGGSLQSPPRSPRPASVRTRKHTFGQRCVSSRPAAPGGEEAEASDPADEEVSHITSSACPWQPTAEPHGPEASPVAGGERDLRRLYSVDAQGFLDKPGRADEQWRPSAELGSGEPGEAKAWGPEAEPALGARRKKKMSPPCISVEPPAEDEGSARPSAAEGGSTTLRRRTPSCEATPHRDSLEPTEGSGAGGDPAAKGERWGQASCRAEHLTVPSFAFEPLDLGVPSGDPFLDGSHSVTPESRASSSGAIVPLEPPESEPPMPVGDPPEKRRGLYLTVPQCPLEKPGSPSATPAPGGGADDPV

CC(C)(C)NC(=O)CN1CCC(CNC(=O)c2cc(F)cc(Cl)c2)CC1 [compound of formula (I), N-((1-(2-(tert-butylamino)-2-oxoethyl)piperidin-4-yl)methyl)-3-chloro-5-fluorobenzamide]
Dry eye ([1]; 5 mg): 1 (12.5%) n (%)
Eye disorders ([1]; 5 mg): 2 (25.0%) n (%)
General Disorders and Administration Site Conditions ([1]; 5 mg): 3 (37.5%) n (%)
Headache ([1]; 5 mg): 2 (25.0%) n (%)
Lethargy ([1]; 5 mg): 1 (12.5%) n (%)
Medical device site dermatitis ([1]; 5 mg): 1 (12.5%) n (%)
Nervous System Disorders ([1]; 5 mg): 2 (25.0%) n (%)
Participants with at least one TEAE ([1]; 5 mg): 5 (62.5%) n (%)
Vessel puncture site thrombosis ([1]; 5 mg): 1 (12.5%) n (%)
Dry eye ([1]; 10 mg): 2 (25.0%) n (%)
Eye disorders ([1]; 10 mg): 2 (25.0%) n (%)
General Disorders and Administration Site Conditions ([1]; 10 mg): 3 (37.5%) n (%)
Headache ([1]; 10 mg): 0 n (%)
Lethargy ([1]; 10 mg): 0 n (%)
Medical device site dermatitis ([1]; 10 mg): 2 (25.0%) n (%)
Nervous System Disorders ([1]; 10 mg): 0 n (%)
Participants with at least one TEAE ([1]; 10 mg): 5 (62.5%) n (%)
Vessel puncture site thrombosis ([1]; 10 mg): 1 (12.5%) n (%)
Dry eye ([1]; 20 mg): 0 n (%)
Eye disorders ([1]; 20 mg): 0 n (%)
General Disorders and Administration Site Conditions ([1]; 20 mg): 1 (12.5%) n (%)
Headache ([1]; 20 mg): 1 (12.5%) n (%)
Medical device site dermatitis ([1]; 20 mg): 0 n (%)
Nervous System Disorders ([1]; 20 mg): 1 (12.5%) n (%)
Participants with at least one TEAE ([1]; 20 mg): 3 (37.5%) n (%)
Vessel puncture site thrombosis ([1]; 20 mg): 0 n (%)
Dry eye ([1]; Overall 5-20 mg): 3 (37.5%) n (%)
Eye disorders ([1]; Overall 5-20 mg): 3 (37.5%) n (%)
Headache ([1]; Overall 5-20 mg): 3 (37.5%) n (%)
Lethargy ([1]; Overall 5-20 mg): 2 (25.0%) n (%)
Medical device site dermatitis ([1]; Overall 5-20 mg): 3 (37.5%) n (%)
Nervous System Disorders ([1]; Overall 5-20 mg): 3 (37.5%) n (%)
Participants with at least one TEAE ([1]; Overall 5-20 mg): 7 (87.5%) n (%)
Vessel puncture site thrombosis ([1]; Overall 5-20 mg): 2 (25.0%) n (%)
PGI-C Score 1 very much improved ([2]; Part A (FAS), Day 7, n 6): 0 n (%)
PGI-C Score 2 Much improved ([2]; Part A (FAS), Day 7, n 6): 1 n (%)
PGI-C Score 3 minimally improved ([2]; Part A (FAS), Day 7, n 6): 2 (33.3) n (%)
PGI-C Score 4 no change ([2]; Part A (FAS), Day 7, n 6): 2 (33.3) n (%)
PGI-C Score 5 minimally worse ([2]; Part A (FAS), Day 7, n 6): 0 n (%)
PGI-C Score 6 much worse ([2]; Part A (FAS), Day 7, n 6): 1 (16.7) n (%)
PGI-C Score 7 very much worse ([2]; Part A (FAS), Day 7, n 6): 0 n (%)
PGI-C Score 1 very much improved ([2]; Part A (FAS), Day 14, n 6): 0 n (%)
PGI-C Score 2 Much improved ([2]; Part A (FAS), Day 14, n 6): 1 n (%)
PGI-C Score 3 minimally improved ([2]; Part A (FAS), Day 14, n 6): 5 (83.3) n (%)
PGI-C Score 4 no change ([2]; Part A (FAS), Day 14, n 6): 0 n (%)
PGI-C Score 5 minimally worse ([2]; Part A (FAS), Day 14, n 6): 0 n (%)
PGI-C Score 6 much worse ([2]; Part A (FAS), Day 14, n 6): 0 n (%)
PGI-C Score 7 very much worse ([2]; Part A (FAS), Day 14, n 6): 0 n (%)
participants with PGI-C score minimally improved ([2]; Day 7): 33.3%
participants with PGI-C score minimally improved ([2]; Day 14): 83.3%
PGI-C Score 1 very much improved ([2]; Part B OLT (FAS), Day 7, n 13): 0 n (%)
PGI-C Score 2 Much improved ([2]; Part B OLT (FAS), Day 7, n 13): 1 n (%)
PGI-C Score 3 minimally improved ([2]; Part B OLT (FAS), Day 7, n 13): 5 (38.5) n (%)
PGI-C Score 4 no change ([2]; Part B OLT (FAS), Day 7, n 13): 7 (53.8) n (%)
PGI-C Score 5 minimally worse ([2]; Part B OLT (FAS), Day 7, n 13): 0 n (%)
PGI-C Score 6 much worse ([2]; Part B OLT (FAS), Day 7, n 13): 0 n (%)
PGI-C Score 7 very much worse ([2]; Part B OLT (FAS), Day 7, n 13): 0 n (%)
PGI-C Score 1 very much improved ([2]; Part B OLT (FAS), Day 21, n 12): 0 n (%)
PGI-C Score 2 Much improved ([2]; Part B OLT (FAS), Day 21, n 12): 1 n (%)
PGI-C Score 3 minimally improved ([2]; Part B OLT (FAS), Day 21, n 12): 5 (41.7) n (%)
PGI-C Score 4 no change ([2]; Part B OLT (FAS), Day 21, n 12): 6 (50.0) n (%)
PGI-C Score 5 minimally worse ([2]; Part B OLT (FAS), Day 21, n 12): 0 n (%)
PGI-C Score 6 much worse ([2]; Part B OLT (FAS), Day 21, n 12): 0 n (%)
PGI-C Score 7 very much worse ([2]; Part B OLT (FAS), Day 21, n 12): 0 n (%)
PGI-C Score 1 very much improved ([2]; Part B OLT (FAS), Day 42, n 11): 0 n (%)
PGI-C Score 2 Much improved ([2]; Part B OLT (FAS), Day 42, n 11): 3 n (%)
PGI-C Score 3 minimally improved ([2]; Part B OLT (FAS), Day 42, n 11): 4 (36.4) n (%)
PGI-C Score 4 no change ([2]; Part B OLT (FAS), Day 42, n 11): 4 (36.4) n (%)
PGI-C Score 5 minimally worse ([2]; Part B OLT (FAS), Day 42, n 11): 0 n (%)
PGI-C Score 6 much worse ([2]; Part B OLT (FAS), Day 42, n 11): 0 n (%)
PGI-C Score 7 very much worse ([2]; Part B OLT (FAS), Day 42, n 11): 0 n (%)
participants with PGI-C much improved ([2]; Day 7): 7.7%
participants with PGI-C score reflecting no change in symptoms ([2]; Day 7): 53.8%
participants with PGI-C much improved ([2]; Day 42): 27.3%
participants with PGI-C score reflecting no change in symptoms ([2]; Day 42): 36.4%
PGI-C Score 1 very much improved [2, 3]: 0 n (%)
PGI-C Score 2 Much improved [2, 3]: 0 n (%)
PGI-C Score 3 minimally improved [2, 3]: 2 (33.3) n (%)
PGI-C Score 4 no change [2, 3]: 3 (50.0) n (%)
PGI-C Score 5 minimally worse [2, 3]: 0 n (%)
PGI-C Score 6 much worse [2, 3]: 0 n (%)
PGI-C Score 7 very much worse [2, 3]: 1 (16.7) n (%)

CC(C)(C)NC(=O)CN1CCC(CNC(=O)c2cc(F)cc(Cl)c2)CC1.Cl [compound of formula (II), N-((1-(2-(tert-butylamino)-2-oxoethyl)piperidin-4-yl)methyl)-3-chloro-5-fluorobenzamide hydrochloride]
tonic block/voltage dependent block (TB/VDB) ratio (hCav3.2): 2.0
